ChEMBL document CHEMBL1130374, “Resolution and biological activities of optical isomers of 1,4-diethyl-3,6-epidithiopiperazine-2,5-dione” (1997)

Columns and labels:
Mus musculus [1] = organism: Mus musculus; test: Compound was evaluated for macrophage adherence in thioglycolate induced mouse macrophages; type: functional; conditions: read-out: ED50 (the source's name)
P815 = test: Compound was evaluated for Thymidine incorporation in P815 cell lines; type: functional; conditions: Mus musculus, read-out: ED50 (the source's name)
Mus musculus [2] = organism: Mus musculus; test: The extent of apoptosis was determined by evaluating the subdiploid population of propidium iodide stained cells using flow cytometry after 9 hr using thymocytes from mice; type: functional, Thymocyte
[3] = molecular target: Creatine kinase M-type (Oryctolagus cuniculus) (UniProt P00563); test: Compound was evaluated for interaction with the creatine kinase in rabbit muscle after 6 hr; parameters: reference not given here
Sequence of Creatine kinase M-type (Oryctolagus cuniculus) (P00563 whole entry, looked up): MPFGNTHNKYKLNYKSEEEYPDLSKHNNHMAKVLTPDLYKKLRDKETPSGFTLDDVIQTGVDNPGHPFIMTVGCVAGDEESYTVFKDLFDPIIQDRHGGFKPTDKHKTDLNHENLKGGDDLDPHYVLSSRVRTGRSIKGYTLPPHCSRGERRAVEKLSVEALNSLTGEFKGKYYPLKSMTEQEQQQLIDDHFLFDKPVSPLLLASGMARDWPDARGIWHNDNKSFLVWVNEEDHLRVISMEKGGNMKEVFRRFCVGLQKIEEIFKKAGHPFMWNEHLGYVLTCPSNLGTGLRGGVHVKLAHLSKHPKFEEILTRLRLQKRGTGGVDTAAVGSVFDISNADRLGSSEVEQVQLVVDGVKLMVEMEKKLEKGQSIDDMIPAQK

SMILES	EC50 (Mus musculus [1])	EC50 (P815)	Activity (Mus musculus [2])	Activity [3]
CN1C(=O)[C@]23CC4=CC=C[C@H](O)[C@H]4N2C(=O)[C@@]1(CO)SS3 [GLIOTOXIN]	0.35 µM	2 µM	59%	32%
CCN1C(=O)[C@@H]2SS[C@H]1C(=O)N2CC	8 µM	55 µM	57%	34%
CCN1C(=O)C2SSC1C(=O)N2CC (racemic)	2.5 µM	35 µM	54%	35%
CCN1C(=O)[C@H]2SS[C@@H]1C(=O)N2CC	5 µM	50 µM	53%	34%
